Results reported in ChEMBL document CHEMBL4480413, “Cytotoxic Withanolides from the Roots of Indian Ginseng ( Withania somnifera)” (J Nat Prod, 2019).

Columns and labels:
Assay type in all cases: functional, cell-based; call rule not given here
[1] = test system: A549; assay: Cytotoxicity against human A549 cells after 72 hrs by SRB assay
[2] = test system: SK-MEL-2; assay: Cytotoxicity against human SK-MEL-2 cells after 72 hrs by SRB assay
[3] = test system: SK-OV-3; assay: Cytotoxicity against human SKOV3 cells after 72 hrs by SRB assay
[4] = test system: HCT-15; assay: Cytotoxicity against human HCT15 cells after 72 hrs by SRB assay
[5] = Homo sapiens, A549, 72 h, read-out: IC50
[6] = Homo sapiens, SK-MEL-2, 72 h, read-out: IC50
[7] = Homo sapiens, SK-OV-3, 72 h, read-out: IC50
[8] = Homo sapiens, HCT-15, 72 h, read-out: IC50

| Compound | IC50 ([1]; a549) | IC50 ([2]; sk-mel-2) | IC50 ([3]; sk-ov-3) | IC50 ([4]; hct-15) | IC50 [1, 5] [µM] | IC50 [2, 6] [µM] | IC50 [3, 7] [µM] | IC50 [4, 8] [µM] |
| --- | --- | --- | --- | --- | --- | --- | --- | --- |
| CC1=C(CO)C(=O)O[C@@H](/C(C)=C2\[C@H](O)C[C@H]3[C@@H]4[C@@H]5O[C@@H]5[C@@]5(O)CC=CC(=O)[C@]5(C)[C@H]4CC[C@]23C)C1 | Not Active | Not Active | Not Active | Not Active |  |  |  |  |
| CC1=C(CO)C(=O)O[C@@H]([C@@H](C)[C@@]2(O)CC[C@H]3[C@@H]4[C@@H]5O[C@@H]5[C@@]5(O)CC=CC(=O)[C@]5(C)[C@H]4CC[C@@]32C)C1 | Not Active | Not Active | Not Active | Not Active |  |  |  |  |
| CC1=C(C)C(=O)O[C@@H]([C@](C)(O)[C@@]2(O)CC[C@H]3[C@@H]4[C@@H]5O[C@@H]5[C@@]5(O)CC=CC(=O)[C@]5(C)[C@H]4CC[C@@]32C)C1 | Not Active | Not Active | Not Active | Not Active |  |  |  |  |
| CC(=O)O[C@@H]1C[C@H]2[C@@H]3[C@@H]4O[C@@H]4[C@@]4(O)CC=CC(=O)[C@]4(C)[C@H]3CC[C@]2(C)/C1=C(\C)[C@H]1CC(C)=C(CO)C(=O)O1 |  |  |  |  | > 10 | 10 | > 10 | 7.6 |
| CC1=C(C)[C@H](O)[C@H]([C@](C)(O)[C@H]2CC[C@H]3[C@@H]4[C@@H]5O[C@@H]5[C@@]5(O)CC=CC(=O)[C@]5(C)[C@H]4CC[C@]23C)OC1=O |  |  |  |  | > 10 | 9.2 | > 10 | 9.8 |
| C[C@H]([C@H]1C[C@H](C)[C@@H](C)C(=O)O1)[C@@]1(O)CC[C@H]2[C@@H]3[C@@H]4O[C@@H]4[C@@]4(O)CC=CC(=O)[C@]4(C)[C@H]3CC[C@@]21C | Not Active | Not Active | Not Active | Not Active |  |  |  |  |
| C[C@H]1C[C@H]([C@](C)(O)[C@H]2CC[C@H]3[C@@H]4[C@H](O)C=C5CC=CC(=O)[C@]5(C)[C@H]4CC[C@]23C)OC(=O)[C@@H]1C |  |  |  |  | > 10 | 5.9 | 8.8 | 5.7 |
| C[C@H]1C[C@H]([C@](C)(O)[C@H]2CC[C@H]3[C@@H]4[C@@H]5O[C@@H]5[C@@]5(O)CC=CC(=O)[C@]5(C)[C@H]4CC[C@]23C)OC(=O)[C@@H]1C | Not Active | Not Active | Not Active | Not Active |  |  |  |  |
| CC1=C(CO)C(=O)O[C@@H]([C@](C)(O)[C@H]2CC[C@H]3[C@@H]4[C@@H]5O[C@@H]5[C@@]5(O)CC=CC(=O)[C@]5(C)[C@H]4CC[C@]23C)C1 | Not Active | Not Active | Not Active | Not Active |  |  |  |  |
| CC1=C(C)C(=O)O[C@@H]([C@](C)(O)[C@H]2CC[C@H]3[C@@H]4[C@H](O)C=C5CC=CC(=O)[C@]5(C)[C@H]4CC[C@]23C)C1 |  |  |  |  | > 10 | 3.4 | 7.9 | 5.1 |
| CC1=C(C)C(=O)O[C@@H]([C@@H](C)[C@]2(O)CC[C@H]3[C@@H]4[C@@H]5O[C@@H]5[C@@]5(O)CC=CC(=O)[C@]5(C)[C@H]4CC[C@@]32C)C1 | Not Active | Not Active | Not Active | Not Active |  |  |  |  |
| COc1cc([C@@H]2c3cc4c(cc3[C@@H](O[C@@H]3O[C@@H]5CO[C@@H](C)O[C@H]5[C@H](O)[C@H]3O)[C@H]3COC(=O)[C@H]23)OCO4)cc(OC)c1O [ETOPOSIDE] |  |  |  |  | 0.71 | 0.79 | 1.83 | 0.46 |
| CC1=C(C)C(=O)O[C@@H]([C@](C)(O)[C@H]2CC[C@H]3[C@@H]4[C@@H]5O[C@@H]5[C@@]5(O)CC=CC(=O)[C@]5(C)[C@H]4CC[C@]23C)C1 [WITHANOLIDE A] | Not Active | Not Active | Not Active | Not Active |  |  |  |  |
| CC1=C(C)C(=O)O[C@@H]([C@@H](C)[C@@]2(O)CC[C@H]3[C@@H]4[C@@H]5O[C@@H]5[C@@]5(O)CC=CC(=O)[C@]5(C)[C@H]4CC[C@@]32C)C1 [WITHANONE] |  |  |  |  | > 10 | 6.1 | > 10 | 5.9 |
